Test results: PubChem BioAssay AID330 (DTP/NCI, 2004)
Values joined by “and” are separate entries in the source; they are usually repeats but may differ in a detail not shown here. Equal entries are not always repeated. Inconclusive results and toxic doses are left out. How the source made its calls: active means survival T/C of 150% or more; inactive means T/C below 125% in these data. Peptide text beside a SMILES is read from it. * marks the point of attachment. Cbz = O=C(OCc1ccccc1)*; Boc = CC(C)(C)OC(=O)*; NHNH2 = NN*

Test system: P388 leukemia ip, CD2F1 mice, survival T/C
Experiment: NCI In Vivo Anticancer Drug Screen. Data for tumor model P388 Leukemia (intraperitoneal) in CD2F1 (CDF1) mice
Details: endpoint: median survival time, higher = longer survival
Summary of the method: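 Mice carrying the transplanted tumor received test compound or vehicle. Survival was recorded in each group, and the value is the treated-group measurement divided by that of the vehicle-treated control group.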

[1] = dose: 50.0 mg/kg/injection, schedule: Q01DX005 (ip), vehicle: Klucel (hydroxypropylcellulose) (HPC)
[2] = dose: 100.0 mg/kg/injection, schedule: Q01DX005 (ip), vehicle: Klucel (hydroxypropylcellulose) (HPC)
[3] = dose: 200.0 mg/kg/injection, schedule: Q01DX005 (ip), vehicle: Klucel (hydroxypropylcellulose) (HPC)
[4] = dose: 50.0 mg/kg/injection, schedule: Q01DX009 (ip), vehicle: Klucel (hydroxypropylcellulose) (HPC)
[5] = dose: 50.0 mg/kg/injection, schedule: Q01DX009 (ip), vehicle: saline with Tween-80
[6] = dose: 100.0 mg/kg/injection, schedule: Q01DX009 (ip), vehicle: Klucel (hydroxypropylcellulose) (HPC)
[7] = dose: 100.0 mg/kg/injection, schedule: Q01DX009 (ip), vehicle: saline with Tween-80
[8] = dose: 200.0 mg/kg/injection, schedule: Q01DX009 (ip), vehicle: Klucel (hydroxypropylcellulose) (HPC)
[9] = dose: 200.0 mg/kg/injection, schedule: Q01DX009 (ip), vehicle: saline with Tween-80
[10] = dose: 60.0 mg/kg/injection, schedule: Q01DX005 (ip), vehicle: saline with Tween-80
[11] = dose: 120.0 mg/kg/injection, schedule: Q01DX005 (ip), vehicle: saline with Tween-80
[12] = dose: 240.0 mg/kg/injection, schedule: Q01DX005 (ip), vehicle: saline with Tween-80
[13] = dose: 60.0 mg/kg/injection, schedule: Q01DX005 (ip), vehicle: Klucel (hydroxypropylcellulose) (HPC)
[14] = dose: 120.0 mg/kg/injection, schedule: Q01DX005 (ip), vehicle: Klucel (hydroxypropylcellulose) (HPC)
[15] = dose: 240.0 mg/kg/injection, schedule: Q01DX005 (ip), vehicle: Klucel (hydroxypropylcellulose) (HPC)
[16] = dose: 50.0 mg/kg/injection, schedule: Q01DX005 (ip), vehicle: saline with Tween-80
[17] = dose: 100.0 mg/kg/injection, schedule: Q01DX005 (ip), vehicle: saline with Tween-80
[18] = dose: 200.0 mg/kg/injection, schedule: Q01DX005 (ip), vehicle: saline with Tween-80

Measured: T/C

S=C(Nc1ccc(I)cc1)SCc1ccc2c(c1)OCO2
inactive: dose: 50.0 mg/kg/injection, schedule: Q01DX009 (ip), vehicle: suspension in saline 110 % of control | dose: 100.0 mg/kg/injection, schedule: Q01DX009 (ip), vehicle: suspension in saline 104 % of control | dose: 200.0 mg/kg/injection, schedule: Q01DX009 (ip), vehicle: suspension in saline 101 % of control

CCOC(=O)C(/C=N\c1[nH]ncc1C#N)=C(/C(=O)OCC)c1ccc(O)cc1
inactive: [1] 110 % of control | [2] 105 % of control | [3] 105 % of control

NC1=C(Cl)C(=O)C(N)=C(Cl)C1=O
inactive: dose: 25.0 mg/kg/injection, schedule: Q01DX009 (ip), vehicle: saline with Tween-80 113 % of control | [4] 100 % of control | [5] 100 % of control | [6] 103 % of control | [7] 100 % of control | [8] 105 % of control | [9] 94 % of control | dose: 400.0 mg/kg/injection, schedule: Q01DX009 (ip), vehicle: Klucel (hydroxypropylcellulose) (HPC) 99 % of control

CC1OC(C)C(O)C2=C1C(=O)c1ccccc1C2=O (stereo not drawn)
inactive: [10] 100 % of control | [11] 100 % of control

COC(=O)c1cc(-c2ccc(OC)cc2)c2c(=O)n(-c3ccccc3)[nH]c2n1
inactive: [10] 101 % of control | [11] 99 % of control | [12] 94 % of control

C=CC(=NC(C)(C)C)Nc1ccccc1OC
inactive: dose: 1.56 mg/kg/injection, schedule: Q01DX009 (ip), vehicle: saline 99 % of control and 89 % of control | dose: 3.12 mg/kg/injection, schedule: Q01DX005 (ip), vehicle: Klucel (hydroxypropylcellulose) (HPC) 117 % of control | dose: 3.12 mg/kg/injection, schedule: Q01DX009 (ip), vehicle: saline 111 % of control and 86 % of control and 98 % of control | dose: 6.25 mg/kg/injection, schedule: Q01DX005 (ip), vehicle: Klucel (hydroxypropylcellulose) (HPC) 117 % of control | dose: 6.25 mg/kg/injection, schedule: Q01DX009 (ip), vehicle: saline 102 % of control and 120 % of control and 95 % of control | dose: 12.5 mg/kg/injection, schedule: Q01DX005 (ip), vehicle: Klucel (hydroxypropylcellulose) (HPC) 114 % of control

COC1(OC)C(c2ccccc2)C(C#N)(C#N)C1(OC)OC (stereo not drawn)
inactive: [13] 102 % of control | [14] 100 % of control | [15] 99 % of control

CC(=O)/C=C1/NC(C(=O)c2ccccc2)=CNC1c1ccccc1 (stereo not drawn)
inactive: [10] 102 % of control | [11] 91 % of control | [12] 95 % of control

CC(C)(C)OC(=O)NC(Cc1c[nH]c2ccccc12)C(=O)NC(CS)C(=O)NN (stereo not drawn) (Boc-Trp-Cys-NHNH2; configuration not given here)
inactive: dose: 12.5 mg/kg/injection, schedule: Q01DX009 (ip), vehicle: other 90 % of control | dose: 25.0 mg/kg/injection, schedule: Q01DX009 (ip), vehicle: other 94 % of control | dose: 50.0 mg/kg/injection, schedule: Q01DX009 (ip), vehicle: other 88 % of control | dose: 100.0 mg/kg/injection, schedule: Q01DX009 (ip), vehicle: other 98 % of control | dose: 200.0 mg/kg/injection, schedule: Q01DX009 (ip), vehicle: other 94 % of control

CC(C)(C)SC(=S)SCC(=O)c1ccc(Cl)cc1
inactive: [10] 99 % of control | [11] 98 % of control | [12] 100 % of control

COc1ccc(C(Nc2ccccn2)c2cc(C(C)(C)C)cc(C(C)(C)C)c2O)cc1 (stereo not drawn)
inactive: dose: 50.0 mg/kg/injection, schedule: Q01DX005 (ip), vehicle: distilled water + alcohol 105 % of control | dose: 100.0 mg/kg/injection, schedule: Q01DX005 (ip), vehicle: distilled water + alcohol 100 % of control | dose: 200.0 mg/kg/injection, schedule: Q01DX005 (ip), vehicle: distilled water + alcohol 109 % of control

CCOc1c(N=Nc2ccc(C)cc2)c(C)nn1C(=S)S
inactive: [13] 96 % of control | [14] 105 % of control | [15] 97 % of control

CN(C)C1=NC(NCc2ccccc2)(N(C)C)OC(N(C)C)=N1 (stereo not drawn)
inactive: dose: 25.0 mg/kg/injection, schedule: Q01DX005 (ip), vehicle: saline 107 % of control | dose: 50.0 mg/kg/injection, schedule: Q01DX005 (ip), vehicle: saline 96 % of control

CCOC(=O)C1=C(C)NC(=O)NC1c1ccc(C)cc1 (stereo not drawn)
inactive: dose: 100.0 mg/kg/injection, schedule: Q04DX003 (ip), vehicle: saline with Tween-80 100 % of control | dose: 200.0 mg/kg/injection, schedule: Q04DX003 (ip), vehicle: saline with Tween-80 95 % of control | dose: 400.0 mg/kg/injection, schedule: Q04DX003 (ip), vehicle: saline with Tween-80 100 % of control

CC(C)OCCCNCC(=O)Nc1ccc(S(=O)(=O)c2ccc(NC(=O)CNCCCOC(C)C)cc2)cc1
inactive: [1] 95 % of control | [2] 100 % of control | [3] 100 % of control

Cc1cccc(C(C)(C)C)c1NC(=O)CCc1nnc(N)n1N
inactive: [16] 111 % of control | [17] 100 % of control | [18] 101 % of control

O=c1[nH]c2ccccc2n1C1CCN(CC(O)C2COc3ccccc3O2)CC1 (stereo not drawn)
inactive: [5] 94 % of control | [7] 106 % of control | [9] 103 % of control

CN(C)c1ccc(C=C2C(=O)CC(C)(C)CC2=O)cc1
inactive: dose: 25.0 mg/kg/injection, schedule: Q01DX009 (ip), vehicle: Klucel (hydroxypropylcellulose) (HPC) 106 % of control | [4] 97 % of control | [6] 92 % of control | [8] 93 % of control

CCOC(=Nc1ccc([N+](=O)[O-])cc1)SC(c1ccccc1)(c1ccccc1)c1ccccc1
inactive: [16] 103 % of control | [17] 91 % of control | [18] 88 % of control

C#CCOc1ccc(Cl)cc1[N+](=O)[O-]
inactive: [4] 100 % of control | [6] 99 % of control | [8] 104 % of control

CCCCN=Cc1ccccc1O.CCCCN=Cc1ccccc1O.[Zn]
inactive: [4] 98 % of control | [6] 112 % of control

CSCCC(NC(=O)C(Cc1ccccc1)NC(=O)OCc1ccccc1)C(=O)O (stereo not drawn) (Cbz-Phe-Met-OH; configuration not given here)
inactive: [16] 104 % of control | [17] 105 % of control | [18] 97 % of control

Cc1ccccc1N=Nc1c(O)n(-c2ccc(Cl)cc2)c(=S)n(-c2ccc(Br)cc2)c1=O
inactive: dose: 100.0 mg/kg/injection, schedule: Q04DX002 (ip), vehicle: saline with Tween-80 96 % of control | dose: 200.0 mg/kg/injection, schedule: Q04DX002 (ip), vehicle: saline with Tween-80 105 % of control | dose: 400.0 mg/kg/injection, schedule: Q04DX002 (ip), vehicle: saline with Tween-80 91 % of control

CCCCCCCCCc1ccc(OC(C)OCCOCCOCC)cc1 (stereo not drawn)
inactive: [10] 98 % of control | [11] 98 % of control | [12] 98 % of control

CCOc1c/c(=N\N=C(/C)c2ccc(Cl)cc2)n(C)c(=O)n1C
inactive: [4] 93 % of control | [6] 96 % of control | [8] 100 % of control

CP1(=O)CCc2c1ccc1ccccc21 (stereo not drawn)
inactive: dose: 100.0 mg/kg/injection, schedule: Q04DX002 (ip), vehicle: saline 107 % of control | dose: 200.0 mg/kg/injection, schedule: Q04DX002 (ip), vehicle: saline 101 % of control

CC1=C(C)CN2CC(C#N)=C(N)C2C1 (stereo not drawn)
inactive: [16] 107 % of control | [17] 96 % of control | [18] 96 % of control
